Molecules are shown by their SMILES.

This test in a line: Cytotoxicity against human HepG2(2.2.15) cells. It counts as functional, cell-based.
Take `C/C1=C\CC/C(C=O)=C/[C@H](OC(=O)c2cc3c(c4c2c([N+](=O)[O-])cc2ccccc24)OCO3)C/C(C)=C/CC1`: the 50% inhibitory concentration (IC50) is 8.23 µM. For `COc1cccc2c1cc([N+](=O)[O-])c1c(C(=O)O[C@H]3/C=C(\C=O)CC/C=C(\C)CC/C=C(\C)C3)cc3c(c12)OCO3` the value was 4.83 µM. With `C/C1=C\CC/C(C=O)=C\[C@H](OC(=O)c2cc3c(c4c2c([N+](=O)[O-])cc2ccccc24)OCO3)C/C(C)=C/CC1` the figure was 7.53 µM; with `COc1cccc2c1cc([N+](=O)[O-])c1c(C(=O)O[C@H]3/C=C(/C=O)CC/C=C(\C)CC/C=C(\C)C3)cc3c(c12)OCO3`, 5.44 µM.

The record behind these values is ChEMBL document CHEMBL1158027, “Sesquiterpene esters of aristolochic acid from the root and stem of Aristolochia heterophylla” (J Nat Prod, 1999).
